Experimental findings from ChEMBL document CHEMBL3751661, “The influence of 5-HT(2A) activity on a 5-HT(2C) specific in vivo assay used for early identification of multiple acting SERT and 5-HT(2C) receptor ligands” (Bioorg Med Chem Lett, 2016) are described below.

pKi: −log10 of the molar value. The source made the active and inactive calls. The rule behind the calls is not given here.

The target in data set [1] is T1, 5-hydroxytryptamine receptor 2C (Rattus norvegicus, UniProt P08909).
T1 sequence (P08909 whole entry): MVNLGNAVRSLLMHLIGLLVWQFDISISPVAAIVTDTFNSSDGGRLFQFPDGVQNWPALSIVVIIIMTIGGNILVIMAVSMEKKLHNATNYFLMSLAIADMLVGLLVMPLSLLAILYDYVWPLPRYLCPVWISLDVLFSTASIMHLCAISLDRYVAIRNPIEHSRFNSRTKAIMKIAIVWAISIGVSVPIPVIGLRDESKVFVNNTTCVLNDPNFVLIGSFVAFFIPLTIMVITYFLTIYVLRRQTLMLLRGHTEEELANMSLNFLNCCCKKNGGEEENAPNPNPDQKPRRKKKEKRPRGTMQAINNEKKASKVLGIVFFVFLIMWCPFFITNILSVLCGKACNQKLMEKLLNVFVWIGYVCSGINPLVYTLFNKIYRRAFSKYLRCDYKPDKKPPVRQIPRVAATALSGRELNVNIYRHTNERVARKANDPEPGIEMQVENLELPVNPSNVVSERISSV
As to the kind of experiment: Displacement of [3H]mesulergine from 5HT2C in Sprague-Dawley rat whole brain membranes after 1 hr by liquid scintillation spectrometry. The class given is tissue-based, Membrane.

The target in data set [2] is Sodium-dependent serotonin transporter (Rattus norvegicus, UniProt P31652). As to the kind of experiment: Displacement of [3H]citalopram from SERT in Sprague-Dawley rat whole brain membranes after 1 hr by liquid scintillation spectrometry. The class given is tissue-based, Membrane.
Data set [3] is described as follows: Intrinsic clearance in mouse liver microsomes at 2.5 uM. The class given is ADME.
The target in data set [4] is 5-hydroxytryptamine receptor 2A (Rattus norvegicus, UniProt P14842). As to the kind of experiment: Displacement of [3H]ketanserin from 5HT2A in Wistar rat frontal cortex membranes after 1 hr by liquid scintillation spectrometry. It counts as cell membranes, Membrane.
A further data set concerns Liver microsome. Description: Intrinsic clearance in human liver microsomes at 2.5 uM. The class given is ADME.
A short description of data set [5]: Efflux ratio of the compound from apical to basolateral side to basolateral to apical side in human vinblastine-treated Caco2 cells. The class given is ADME, cell-based. Particulars: caco-2.
Data set [6] deals with Sodium-dependent serotonin transporter (Rattus norvegicus) (UniProt P31652). As to the kind of experiment: Displacement of [3H]citalopram from SERT in Sprague-Dawley rat whole brain membranes at 1 uM after 1 hr by liquid scintillation spectrometry. Particulars: Membrane. The class given is tissue-based.
The target in data set [7] is 5-hydroxytryptamine receptor 1A (Homo sapiens) (UniProt P08908). Description: Displacement of [3H]-8-OH-DPAT from human 5HT1A receptor at 1 uM.
Data set [8] deals with Mus musculus. Description: Inhibition of mCPP-induced hypomotility in ip dosed NMRI mouse assessed as rearing count up to 60 mins. The class given is functional. The conditions noted are these: 1 h.
The target in data set [9] is 5-hydroxytryptamine receptor 2B (Homo sapiens) (UniProt P41595). As to the kind of experiment: Displacement of [3H]-LSD from human 5HT2B receptor at 1 uM.
The nature of data set [10]: Apparent permeability of the compound from apical to basolateral side in human vinblastine-treated Caco2 cells. It counts as ADME, cell-based. Particulars: caco-2.
For data set [11], the system named is Mus musculus. Description: Inhibition of mCPP-induced hypomotility in NMRI mouse assessed as reductiion in vertical hypoactivity at 20 to 40 mg/kg, ip up to 60 mins. It counts as functional, organism-based.
Data set [12] concerns Mus musculus. As to the kind of experiment: Potentiation of mCPP-induced hypomotility in NMRI mouse at 20 to 40 mg/kg, ip up to 60 mins. It counts as ADME, organism-based. Particulars: in vivo, 1 h.
Data set [13] deals with Mus musculus. Description: Induction of motor depression in C57BL/6J mouse assessed as total duration of immobility was measured over a period of 6 mins at 20 to 80 mg/kg, ip by tail suspension test. The conditions noted are these: in vivo, 0.1 h. It counts as organism-based.
For data set [14], the target named is T2, 5-hydroxytryptamine receptor 2C (Homo sapiens) (UniProt P28335).
T2 sequence (whole entry): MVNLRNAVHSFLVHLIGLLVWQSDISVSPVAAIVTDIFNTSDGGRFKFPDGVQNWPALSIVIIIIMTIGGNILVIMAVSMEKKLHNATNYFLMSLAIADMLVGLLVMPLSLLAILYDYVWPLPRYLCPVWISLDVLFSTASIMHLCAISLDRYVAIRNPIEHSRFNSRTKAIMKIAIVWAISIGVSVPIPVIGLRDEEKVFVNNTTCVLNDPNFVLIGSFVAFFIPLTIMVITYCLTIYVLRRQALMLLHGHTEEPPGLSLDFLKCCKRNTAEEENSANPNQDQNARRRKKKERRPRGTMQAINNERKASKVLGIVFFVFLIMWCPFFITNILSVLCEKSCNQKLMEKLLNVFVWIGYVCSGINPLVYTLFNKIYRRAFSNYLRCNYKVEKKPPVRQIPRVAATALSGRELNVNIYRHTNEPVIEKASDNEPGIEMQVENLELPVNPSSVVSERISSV
As to the kind of experiment: Antagonist activity at human 5-HT2C receptor expressed in CHO-K1 cells assessed as inhibition of 5HT-induced Ca2+ release at 10 uM by fluorometry assay. It counts as functional, cell-based.

In data set [15] the target is T3, 5-hydroxytryptamine receptor 2A (Homo sapiens, UniProt P28223). Description: Antagonist activity at human 5-HT2A receptor expressed in CHO-K1 cells assessed as inhibition of 5HT-induced Ca2+ release at 10 uM by fluorometry assay. It counts as functional, cell-based.
Data set [16] concerns Mus musculus. Description: Induction of motor depression in C57BL/6J mouse assessed as total duration of immobility was measured over a period of 6 mins at 25 to 100 mg/kg, ip by tail suspension test. The conditions noted are these: in vivo, 0.1 h. It counts as organism-based.
The test system of data set [17] is Mus musculus. As to the kind of experiment: Inhibition of hypomotility in NMRI mouse assessed as reduction in rearing at 20 mg/kg, ip in presence of 0.1 to 1 mg/kg, sc selective 5-HT2C antagonist SB-242084. The class given is functional, organism-based.
In data set [18] the test system is Mus musculus. As to the kind of experiment: Inhibition of mCPP-induced hypomotility in NMRI mouse assessed as reductiion in vertical hypoactivity at 40 to 80 mg/kg, ip up to 60 mins. The class given is functional, organism-based.
Data set [19] has as its system Mus musculus. As to the kind of experiment: Effect on spontaneous rearing behavior in NMRI mouse at 5 to 80 mg/kg, ip. The class given is ADME, organism-based. The conditions noted are these: in vivo.
For data set [20], the target named is Sodium-dependent serotonin transporter (Homo sapiens, UniProt P31645). Description: Binding affinity to SERT (unknown origin).
Data set [21] has as its target T4, 5-hydroxytryptamine receptor 2C (Homo sapiens, UniProt P28335).
T4 sequence (P28335 whole entry): T2 sequence (whole entry)
Description: Binding affinity to 5HT2C (unknown origin).

Data set [22] addresses T3, 5-hydroxytryptamine receptor 2A. Description: Binding affinity to 5HT2A (unknown origin).

T3 sequence (P28223 whole entry): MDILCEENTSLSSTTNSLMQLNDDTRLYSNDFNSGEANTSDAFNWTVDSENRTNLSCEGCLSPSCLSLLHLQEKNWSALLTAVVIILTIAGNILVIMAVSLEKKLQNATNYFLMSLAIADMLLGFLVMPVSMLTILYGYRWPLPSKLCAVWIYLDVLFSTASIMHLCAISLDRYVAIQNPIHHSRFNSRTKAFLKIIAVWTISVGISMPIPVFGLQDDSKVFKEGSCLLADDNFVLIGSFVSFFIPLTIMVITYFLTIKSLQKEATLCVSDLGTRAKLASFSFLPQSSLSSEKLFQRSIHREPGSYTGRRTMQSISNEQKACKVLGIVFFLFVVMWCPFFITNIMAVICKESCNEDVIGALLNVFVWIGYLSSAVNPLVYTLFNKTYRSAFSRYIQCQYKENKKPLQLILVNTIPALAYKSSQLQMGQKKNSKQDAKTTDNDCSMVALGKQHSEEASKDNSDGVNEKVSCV
5-hydroxytryptamine receptor 1A (Homo sapiens), sequence (P08908 whole entry, looked up): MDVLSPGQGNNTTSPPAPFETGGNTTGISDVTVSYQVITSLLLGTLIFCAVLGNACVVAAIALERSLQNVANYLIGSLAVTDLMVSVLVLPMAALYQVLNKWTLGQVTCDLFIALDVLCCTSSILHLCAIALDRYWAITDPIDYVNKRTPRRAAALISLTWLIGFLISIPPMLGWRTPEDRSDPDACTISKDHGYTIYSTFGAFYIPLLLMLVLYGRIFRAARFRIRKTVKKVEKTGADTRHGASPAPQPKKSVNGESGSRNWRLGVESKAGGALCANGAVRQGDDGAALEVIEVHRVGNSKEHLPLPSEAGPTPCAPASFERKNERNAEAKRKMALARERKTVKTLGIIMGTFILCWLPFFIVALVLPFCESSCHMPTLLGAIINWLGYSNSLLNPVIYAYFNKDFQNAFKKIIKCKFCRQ
5-hydroxytryptamine receptor 2B (Homo sapiens), sequence (P41595 whole entry): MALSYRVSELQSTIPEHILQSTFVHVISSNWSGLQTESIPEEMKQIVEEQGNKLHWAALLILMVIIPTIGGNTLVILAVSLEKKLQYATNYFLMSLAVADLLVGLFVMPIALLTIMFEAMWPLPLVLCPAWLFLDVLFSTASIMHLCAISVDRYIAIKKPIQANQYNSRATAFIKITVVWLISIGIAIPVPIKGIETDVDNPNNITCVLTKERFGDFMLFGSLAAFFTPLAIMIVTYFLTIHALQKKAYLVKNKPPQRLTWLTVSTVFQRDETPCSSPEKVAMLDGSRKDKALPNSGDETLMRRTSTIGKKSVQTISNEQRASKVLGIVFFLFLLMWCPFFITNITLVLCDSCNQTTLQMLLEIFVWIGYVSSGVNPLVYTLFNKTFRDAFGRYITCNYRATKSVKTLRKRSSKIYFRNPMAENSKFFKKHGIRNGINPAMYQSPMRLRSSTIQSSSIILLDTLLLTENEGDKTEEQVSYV
5-hydroxytryptamine receptor 2A (Rattus norvegicus, UniProt P14842), sequence (P14842 whole entry): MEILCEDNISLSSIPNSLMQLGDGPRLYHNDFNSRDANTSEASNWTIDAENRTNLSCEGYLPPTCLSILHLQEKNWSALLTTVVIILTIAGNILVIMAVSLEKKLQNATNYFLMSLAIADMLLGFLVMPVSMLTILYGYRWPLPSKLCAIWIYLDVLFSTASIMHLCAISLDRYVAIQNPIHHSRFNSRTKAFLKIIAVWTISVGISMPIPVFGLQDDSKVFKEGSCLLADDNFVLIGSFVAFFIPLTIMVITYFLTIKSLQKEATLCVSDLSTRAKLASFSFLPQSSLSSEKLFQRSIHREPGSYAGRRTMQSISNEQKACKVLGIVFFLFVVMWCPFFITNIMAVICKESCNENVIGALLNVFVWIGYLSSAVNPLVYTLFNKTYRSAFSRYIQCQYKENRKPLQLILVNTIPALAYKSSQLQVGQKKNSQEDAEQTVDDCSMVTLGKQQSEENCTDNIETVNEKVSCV
Sodium-dependent serotonin transporter (Rattus norvegicus, UniProt P31652), sequence (P31652 whole entry): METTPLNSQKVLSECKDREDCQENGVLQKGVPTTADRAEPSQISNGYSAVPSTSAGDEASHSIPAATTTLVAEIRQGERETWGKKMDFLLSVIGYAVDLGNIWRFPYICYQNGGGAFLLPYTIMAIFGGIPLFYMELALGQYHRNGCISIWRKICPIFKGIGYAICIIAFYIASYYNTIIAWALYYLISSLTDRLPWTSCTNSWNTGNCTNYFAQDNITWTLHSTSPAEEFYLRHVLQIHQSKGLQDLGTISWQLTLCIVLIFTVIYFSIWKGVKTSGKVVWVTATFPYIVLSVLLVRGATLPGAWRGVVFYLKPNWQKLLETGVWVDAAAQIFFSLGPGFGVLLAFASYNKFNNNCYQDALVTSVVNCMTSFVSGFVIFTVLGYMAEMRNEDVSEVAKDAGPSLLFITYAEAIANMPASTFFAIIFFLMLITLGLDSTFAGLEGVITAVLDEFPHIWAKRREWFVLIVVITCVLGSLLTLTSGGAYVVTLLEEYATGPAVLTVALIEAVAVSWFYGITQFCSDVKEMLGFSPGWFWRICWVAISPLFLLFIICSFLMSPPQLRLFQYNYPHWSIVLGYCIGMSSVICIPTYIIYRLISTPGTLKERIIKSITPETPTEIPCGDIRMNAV
Sodium-dependent serotonin transporter (Homo sapiens, UniProt P31645), sequence (P31645 whole entry): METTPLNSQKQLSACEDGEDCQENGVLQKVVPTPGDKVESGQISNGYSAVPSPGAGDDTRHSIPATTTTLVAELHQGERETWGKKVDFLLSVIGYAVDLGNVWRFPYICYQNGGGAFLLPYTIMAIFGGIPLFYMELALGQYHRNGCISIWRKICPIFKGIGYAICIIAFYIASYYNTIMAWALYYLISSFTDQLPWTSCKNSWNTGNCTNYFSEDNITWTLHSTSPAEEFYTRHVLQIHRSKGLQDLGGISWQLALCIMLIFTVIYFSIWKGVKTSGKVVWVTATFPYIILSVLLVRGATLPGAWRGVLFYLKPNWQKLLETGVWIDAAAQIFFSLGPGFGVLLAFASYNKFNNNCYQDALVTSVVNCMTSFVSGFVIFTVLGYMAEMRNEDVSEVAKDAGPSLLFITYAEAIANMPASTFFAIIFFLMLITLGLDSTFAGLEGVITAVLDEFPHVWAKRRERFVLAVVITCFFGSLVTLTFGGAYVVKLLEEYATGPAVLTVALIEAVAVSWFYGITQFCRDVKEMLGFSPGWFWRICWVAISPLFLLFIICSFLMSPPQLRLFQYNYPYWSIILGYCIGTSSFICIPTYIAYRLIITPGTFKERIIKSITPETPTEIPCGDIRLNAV
Sodium-dependent serotonin transporter (Rattus norvegicus), sequence (P31652 whole entry): as the sequence (P31652 whole entry) above

With `CN(C)CCN(Cc1ccccc1)S(=O)(=O)c1ccc(NC(=O)N2CCN(c3cccc(Cl)c3)CC2)cc1`, the pKi was 7.02 in [1] and 7.43 in data set [2].
Consider `CN(C)CCC(Oc1ccc(NC(=O)Nc2ccc3c(ccn3C)c2)cc1)c1ccccc1` (stereo unspecified), for which the CLH in [3] worked out at 3.25 mL/min/g; in the data set on Liver microsome it was 2.66 mL/min/g. In addition, the pKi in data set [4] is 6.62. Moreover, the Ratio in [5] is listed as 5.3.
`COc1ccc(NC(=O)Nc2ccc(S(=O)(=O)N(CCN(C)C)Cc3ccccc3)cc2)cc1Cl`: the pKi is 7.79 in [1] and 7.03 in [2].
On to `Cc1cc2c(cc1Cl)N(C(=O)Nc1ccc(Oc3cccnc3C)nc1)CC2` [SB-242084], for which the pKi in data set [1] is 9.80; in data set [4], 6.56; in [2], 5.75.
As for `Cc1ccc(NC(=O)Nc2ccc(S(=O)(=O)N(CCN(C)C)Cc3ccccc3)cc2)cc1Cl`, the pKi was 8.35 in [1] and 6.68 in data set [2].
Compound `Cc1cc2c(cc1Cl)N(C(=O)Nc1ccc(S(=O)(=O)N(CCN(C)C)Cc3ccccc3)cc1)CC2` had a pKi in [1] of 7.36. The inhibition in data set [6] was 11%.
As to `COc1ccc(NC(=O)Nc2ccc(OC(CCN(C)C)c3ccccc3)cc2)cc1Cl` (stereo unspecified), the inhibition was -4% in data set [7] and 87% in [9]. For the same compound, the ED50 in the data set on Mus musculus [8] came out at 13.5 mg/kg. The figures for the CLH (in data set [3]; in the data set with Liver microsome) were 1.25 mL/min/g and 0.68 mL/min/g, respectively. In data set [4], this compound gave a pKi of 6.63. Further, the Ratio in [5] stood at 2.2.
On to `CN(C)CCN(Cc1ccccc1)S(=O)(=O)c1ccc(NC(=O)Nc2ccc3c(ccn3C)c2)cc1`, for which the pKi in data set [1] is 7.84; in data set [4], 7.23; in [2] it was 7.58. Further, the inhibition in data set [7] was -4%; in data set [9], 86%. The Papp A→B in data set [10] turned out to be 8.6 ×10⁻⁶ cm/s. The CLH in [3] stood at 1.07 mL/min/g; in the data set with Liver microsome, 3.94 mL/min/g. Further, the outcome in the data set on Mus musculus [11] was inactive. The Activity result in the data set with Mus musculus [12] and in the data set on Mus musculus [13] was “Toxic” throughout. For the same compound, the Ratio in [5] came out at 2.2. In addition, the inhibition result in data set [14] and in data set [15] was “Active” in each case.
Take `CN(C)CCN(Cc1ccccc1)S(=O)(=O)c1ccc(N2CCN(c3cccc(Cl)c3)CC2)cc1`: the figures for the pKi in data set [1], in [4] and in data set [2] were 8.09, 8.00 and 7.53, respectively. In addition, the results for the inhibition in data set [7] and in data set [9] were -7% and 82%, respectively. The CLH in [3] turned out to be 1.57 mL/min/g; in the data set with Liver microsome it was 1.43 mL/min/g. For the same compound, the Activity result in the data set on Mus musculus [16] and in the data set with Mus musculus [19] was “Toxic” throughout. Also, the result with Mus musculus [17] and in the data set with Mus musculus [18] was inactive. For the same compound, the inhibition result in [14] and in data set [15] was “Active” in each case.
As to `CCn1ccc2cc(NC(=O)Nc3ccc(S(=O)(=O)N(CCN(C)C)Cc4ccccc4)cc3)ccc21`, the pKi in [1] was 7.58; in [2] it was 7.18.
Take `Cc1ccc(NC(=O)Nc2ccc(OC(CCN(C)C)c3ccccc3)cc2)cc1Cl` (stereo unspecified): in data set [1], the pKi is 8.52.
In data set [20], `Clc1cccc(N2CCNCC2)c1` [CHLOROPHENYLPIPERAZINE] showed a pKi of 6.57.
Turning to `CN(C)CCN(Cc1ccccc1)S(=O)(=O)c1ccc(C(=O)N2CCN(c3cccc(Cl)c3)CC2)cc1`, the figures for the pKi in data set [1] and in [2] were 6.32 and 6.96, respectively.
Turning to `CN(C)CCN(Cc1ccccc1)S(=O)(=O)c1ccc(I)cc1`, the pKi in data set [1] is 7.94; in data set [20] it was 7.52; in [21], 8.10; in [4], 8.52; in [22], 8.74; in data set [2], 7.69. Besides, the CLH was determined as 14.19 mL/min/g in data set [3] and 1.36 mL/min/g in the data set on Liver microsome.
With `CN(C)CCN(Cc1ccccc1)S(=O)(=O)c1cccc(N2CCN(c3cccc(Cl)c3)CC2)c1`, the pKi in data set [1] is 8.21; in data set [2] it was 6.29.
As to `Cc1cc2c(cc1Cl)N(C(=O)Nc1ccc(OC(CCN(C)C)c3ccccc3)cc1)CC2` (stereo unspecified), the values for the pKi in data set [1], in [4] and in [2] were 9.22, 6.86 and 7.18, respectively. Also, the ED50 in the data set on Mus musculus [8] was 17.9 mg/kg. Moreover, the figures for the CLH (in [3]; in the data set with Liver microsome) were 0.9 mL/min/g and 0.06 mL/min/g, respectively.
